Laboratory results published in patent publication US8198311B2, “Modulators of glucocorticoid receptor, AP-1, and/or NF-κB activity and use thereof” (Bristol-Myers Squibb Company, priority 2006, dated 2012).
Like-named read-outs stand apart in the source and are kept apart here.

Key:
[1] = molecular target: T1, human full-length glucocorticoid receptor (Homo sapiens, UniProt P04150); assay: Glucocorticoid Receptor Binding Assay (II), fluorescence polarization competitor kit (Fluormone GS1); settings: cell lysate with recombinant human full-length GR
T1 construct: recombinantly expressed human full-length glucocorticoid receptor; purchased PanVera Co., Madison, Wis; P2816
T1 sequence (P04150 1-777): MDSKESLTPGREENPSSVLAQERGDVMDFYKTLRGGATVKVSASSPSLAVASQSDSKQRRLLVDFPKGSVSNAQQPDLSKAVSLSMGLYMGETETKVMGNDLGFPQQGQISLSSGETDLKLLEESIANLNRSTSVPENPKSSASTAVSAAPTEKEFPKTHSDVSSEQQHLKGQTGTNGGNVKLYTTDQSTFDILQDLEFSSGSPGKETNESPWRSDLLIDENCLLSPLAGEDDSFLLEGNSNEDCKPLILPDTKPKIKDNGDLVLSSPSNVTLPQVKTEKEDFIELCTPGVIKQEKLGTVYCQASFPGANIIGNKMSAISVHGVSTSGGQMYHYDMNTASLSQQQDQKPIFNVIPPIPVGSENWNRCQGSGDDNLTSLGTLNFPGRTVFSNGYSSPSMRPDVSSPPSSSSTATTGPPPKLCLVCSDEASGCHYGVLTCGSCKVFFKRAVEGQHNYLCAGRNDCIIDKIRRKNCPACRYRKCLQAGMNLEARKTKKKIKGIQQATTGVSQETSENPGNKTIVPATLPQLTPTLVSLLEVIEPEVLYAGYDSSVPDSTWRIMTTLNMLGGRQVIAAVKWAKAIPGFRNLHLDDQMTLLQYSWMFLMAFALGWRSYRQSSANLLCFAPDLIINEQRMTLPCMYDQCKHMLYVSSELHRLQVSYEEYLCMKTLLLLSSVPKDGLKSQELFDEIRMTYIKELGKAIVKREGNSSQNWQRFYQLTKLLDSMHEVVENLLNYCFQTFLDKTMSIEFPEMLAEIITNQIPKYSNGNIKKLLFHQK
Procedure: In order to measure the binding of compounds on the glucocorticoid receptor a commercially available kit was used (Glucocorticoid receptor competitor assay kit, PanVera Co., Madison, Wis., P2816). Briefly, a cell lysate containing recombinantly expressed human full-length glucocorticoid receptor was mixed with a fluorescently labeled glucocorticoid (1 nM Fluormone GS1) in the presence or absence of test compound. After one hour at room temperature, the fluorescence polarization (FP) of the samples were measured. […] Test molecules were analyzed in the concentration range from 2.4 nM to 40 microMolar.

[2] = system: AP-1 induced transcriptional activity; assay: Cellular Transrepressional Assay (AP-1 luciferase reporter in A549 cells, PMA-activated); assay type: cell-based; settings: pAP-1-Luc, 10 ng/ml PMA, read-out: AP-1 (EC50, nM) (Cellular Transrepression Assay)
Outline: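 A549 cells stably carrying a 7×AP-1-luciferase reporter, stimulated with 10 ng/ml PMA with or without compound (0.1 nM-40 μM) for 7 h. Luciferase luminescence read 10 min after reagent addition; repression is percentage decrease of PMA-alone signal, EC50 by curve fitting.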

Compound | Ki [1] [nM] | EC50 ([2]; 7 hours) [nM] | EC50 ([2]; Homo sapiens, A549, 7 h) [nM]
CC(C)CC(c1ccc2c(cnn2-c2ccc(F)cc2)c1)C(C)(C)CNC(=O)NCC(F)(F)F (single isomer, unassigned) [Example 58A, 1-(3-(1-(4-fluorophenyl)-1H-indazol-5-yl)-2,2,5-trimethylhexyl)-3-(2,2,2-trifluoroethyl)urea] | 14 | > 10000 | –
CC(C)CC(c1ccc2c(cnn2-c2ccc(F)cc2)c1)C(C)(C)CNC(N)=O (centres unmarked) [Example 61, 1-(3-(1-(4-fluorophenyl)-1H-indazol-5-yl)-2,2,5-trimethylhexyl)urea] | 9.6 | – | 371
CC(C)(C(O)Cc1ccccc1)C(c1ccccc1)c1ccc2c(cnn2-c2ccc(F)cc2)c1 (centres unmarked) [Example 124, 4-(1-(4-fluorophenyl)-1H-indazol-5-yl)-3,3-dimethyl-1,4-diphenylbutan-2-ol] | 75 | – | > 10000
O=C(CC(F)(F)F)NCC1CC1(c1ccccc1)c1ccc2c(cnn2-c2ccc(F)cc2)c1 (centres unmarked) [Example 88, 3,3,3-Trifluoro-N-((2-(1-(4-fluorophenyl)-1H-indazol-5-yl)-2-phenylcyclopropyl)methyl)propanamide] | 86 | – | > 10000
CC(C)(CNC(=O)C(F)(F)F)[C@H](c1ccccc1)c1ccc2c(cnn2-c2ccc(F)cc2)c1 [(R)-16, (R)-2,2,2-trifluoro-N-(3-(1-(4-fluorophenyl)-1H-indazol-5-yl)-2,2-dimethyl-3-phenylpropyl)acetamide] | 7.4 | – | 61
COC(=O)C(=O)NCC(C)(C)[C@H](c1ccccc1)c1ccc2c(cnn2-c2ccc(F)cc2)c1 [Example 23, (R)-methyl 2-(3-(1-(4-fluorophenyl)-1H-indazol-5-yl)-2,2-dimethyl-3-phenylpropylamino)-2-oxoacetate] | 62 | – | 5960
CC(C)(C(=O)c1cccs1)C(c1ccccc1)c1ccc2c(cnn2-c2ccc(F)cc2)c1 (centres unmarked) [Example 127] | 7.8 | – | 5870
CC(C)CC(c1ccc2c(cnn2-c2ccc(F)cc2)c1)C(C)(C)CNC(=O)C(F)(F)F (centres unmarked) [Example 25, 2,2,2-trifluoro-N-(3-(1-(4-fluorophenyl)-1H-indazol-5-yl)-2,2,5-trimethylhexyl)acetamide] | 8.2 | – | > 10000
O=S(=O)(CC(F)(F)F)NCCC(c1ccccc1)c1ccc2c(cnn2-c2ccc(F)cc2)c1 (centres unmarked) [Example 110, 2,2,2-Trifluoro-N-(3-(1-(4-fluorophenyl)-1H-indazol-5-yl)-3-phenylpropyl)ethanesulfonamide] | 21 | – | > 10000
CC(C)(C(=O)C1CC1)C(c1ccccc1)c1ccc2c(cnn2-c2ccc(F)cc2)c1 (centres unmarked) [Example 126] | 12 | – | > 10000
CC(C)(C(c1ccccc1)c1ccc2c(cnn2-c2ccc(F)cc2)c1)C(O)(c1ccccc1)C(F)(F)F (centres unmarked) [Example 129, 1,1,1-Trifluoro-4-(1-(4-fluorophenyl)-1H-indazol-5-yl)-3,3-dimethyl-2,4-diphenylbutan-2-ol] | 26 | – | 202
CC(=O)NCC(C)(C)[C@H](c1ccccc1)c1ccc2c(cnn2-c2ccc(F)cc2)c1 [Example 22, (R)-N-(3-(1-(4-fluorophenyl)-1H-indazol-5-yl)-2,2-dimethyl-3-phenylpropyl)acetamide] | 17 | – | 679
CC(C)CC(c1ccc2c(cnn2-c2ccc(F)cc2)c1)C(C)(C)CNC(=O)NC(C)(C)CN1CCOCC1 (centres unmarked) [Example 33, 1-(3-(1-(4-fluorophenyl)-1H-indazol-5-yl)-2,2,5-trimethylhexyl)-3-(2-methyl-1-morpholinopropan-2-yl)urea] | 74 | – | > 10000
CC(C)(C(=O)C(F)(F)F)C(c1ccccc1)c1ccc2c(cnn2-c2ccc(F)cc2)c1 (centres unmarked) [Example 131, 1,1,1-Trifluoro-4-(1-(4-fluorophenyl)-1H-indazol-5-yl)-3,3-dimethyl-4-phenylbutan-2-one] | 20 | – | > 10000
O=C(NCCC(c1ccccc1)c1ccc2c(cnn2-c2ccc(F)cc2)c1)C(F)(F)F (centres unmarked) [Example 112, 2,2,2-Trifluoro-N-(3-(1-(4-fluorophenyl)-1H-indazol-5-yl)-3-phenylpropyl)acetamide] | 11 | – | 95
Cn1ncc2cc([C@H](c3ccccc3)C(C)(C)CNC(=O)CC(F)(F)F)ccc21 [Example 84, (S)—N-(2,2-Dimethyl-3-(1-methyl-1H-indazol-5-yl)-3-phenylpropyl)-3,3,3-trifluoropropanamide] | 115 | – | > 10000
CC(C)(CNc1nncs1)C(c1ccccc1)c1ccc2c(cnn2-c2ccc(F)cc2)c1 (centres unmarked) [Example 109, N-(3-(1-(4-Fluorophenyl)-1H-indazol-5-yl)-2,2-dimethyl-3-phenylpropyl)-1,3,4-thiadiazol-2-amine] | 9.2 | – | 43
CC(C)n1ncc2cc([C@H](c3ccccc3)C(C)(C)CNC(=O)CC(F)(F)F)ccc21 [Example 86, (S)—N-(2,2-Dimethyl-3-(1-isopropyl-1H-indazol-5-yl)-3-phenylpropyl)-3,3,3-trifluoropropanamide] | 13 | – | > 10000
CC(C)(C(=O)c1ccccc1)C(c1ccccc1)c1ccc2c(cnn2-c2ccc(F)cc2)c1 (centres unmarked) [Example 125] | 14 | – | > 10000
CC(C)CC(c1ccc2c(cnn2-c2ccc(F)cc2)c1)C(C)(C)CNC(=O)CC(F)(F)F (centres unmarked) [Example 59A, 3,3,3-trifluoro-N-(3-(1-(4-fluorophenyl)-1H-indazol-5-yl)-2,2,5-trimethylhexyl)propanamide] | 6.9 | – | 57
CC(C)(CNS(=O)(=O)CC(F)(F)F)[C@@H](c1ccccc1)c1ccc2[nH]ncc2c1 [(S)-83, (S)-N-(3-(1H-indazol-5-yl)-2,2-dimethyl-3-phenylpropyl)-2,2,2-trifluoroethanesulfonamide] | 34 | – | > 10000
CC(C)(CNC(=O)CC(F)(F)F)[C@@H](c1ccccc1)c1ccc2[nH]ncc2c1 [(S)-82, (S)-N-(3-(1H-indazol-5-yl)-2,2-dimethyl-3-phenylpropyl)-3,3,3-trifluoropropanamide] | 39 | – | > 10000
CC(C)(CNC(=O)C1(C(F)(F)F)CC1)[C@@H](c1ccccc1)c1ccc2c(cnn2-c2ccc(F)cc2)c1 [Example 10, (S)-N-(3-(1-(4-fluorophenyl)-1H-indazol-5-yl)-2,2-dimethyl-3-phenylpropyl)-1-(trifluoromethyl)cyclopropanecarboxamide] | 19 | – | 143
CC(C)(CNC(=O)C(F)(F)C(F)(F)F)[C@@H](c1ccccc1)c1ccc2c(cnn2-c2ccc(F)cc2)c1 [Example 19, (S)-2,2,3,3,3-pentafluoro-N-(3-(1-(4-fluorophenyl)-1H-indazol-5-yl)-2,2-dimethyl-3-phenylpropyl)propanamide] | 11 | – | > 10000
CC(C)S(=O)(=O)NCC(C)(C)[C@@H](c1ccccc1)c1ccc2c(cnn2-c2ccc(F)cc2)c1 [Example 7, (S)-N-(3-(1-(4-fluorophenyl)-1H-indazol-5-yl)-2,2-dimethyl-3-phenylpropyl)propane-2-sulfonamide] | 6.1 | – | 139
CC(C)(COC(=O)NCC(F)(F)F)C(c1ccccc1)c1ccc2c(cnn2-c2ccc(F)cc2)c1 (centres unmarked) [Example 132, 3-(1-(4-Fluorophenyl)-1H-indazol-5-yl)-2,2-dimethyl-3-phenylpropyl 2,2,2-trifluoroethylcarbamate] | 28 | – | > 10000
CCS(=O)(=O)NCC(C)(C)[C@@H](c1ccccc1)c1ccc2c(cnn2-c2ccc(F)cc2)c1 [Example 11, (S)-N-(3-(1-(4-fluorophenyl)-1H-indazol-5-yl)-2,2-dimethyl-3-phenylpropyl)ethanesulfonamide] | 16 | – | 29
CC(C)(CNS(C)(=O)=O)[C@@H](c1ccccc1)c1ccc2c(cnn2-c2ccc(F)cc2)c1 [Example 6, (S)-N-(3-(1-(4-fluorophenyl)-1H-indazol-5-yl)-2,2-dimethyl-3-phenylpropyl)methanesulfonamide] | 4.9 | – | 47
